Results as given in publication PMC5643462, “Encrypted Antimicrobial Peptides from Plant Proteins” (Scientific Reports, 2017).
≈ marks a conversion by molar mass, not a printed value. Read-outs that look alike come from different tables or passages of the source. No end group written: not given here.

Tests used:
[1] = system: Candida albicans; assay: microbe, parasite or virus in culture; details: for Minimum inhibitory concentration, Candida albicans: ATCC 90028, RPMI 1640 pH 7.0, 37 °C, 48 h, start 2.5 x 10^3 cells, 256-0.5 µM, mean ± SD of 3 biological repetitions (SD 0 not displayed), no cells seen by optical microscopy, N/A = no antimicrobial activity observed
Experimental: (§1) The susceptibility test of microorganisms was performed to evaluate the inhibitory activity of the IAPs. Protocols M7-A10[50], M27-A3[51] and M38-A2[52] from Clinical & Laboratory Standards Institute (CLSI) were used for bacteria, yeasts and filamentous fungi tests, respectively. Briefly, different concentration of IAPs (256-0.5 µM) were tested against 16 microorganisms, in a final volume of 100 µL. Media conditions, final cell concentration and incubation conditions are presented in Supplementary Material 07, Table S5. Three biological repetitions, with 2 technical replicates each, were performed for each test, on polystyrene flat-bottom 96 wells microplates. The minimum inhibitory concentration (MIC) was defined as the concentration that no cells/hyphae were detected when visualized by optical microscopy.
(§2) Supplementary Material 07, Table S5
(§3) Table S5. Microorganisms and growth conditions.

[2] = system: Cryptococcus neoformans; assay: microbe, parasite or virus in culture; details: for Minimum inhibitory concentration, Cryptococcus neoformans: ATCC 28957, RPMI 1640 pH 7.0, 37 °C, 72 h, start 2.5 x 10^3 cells, 256-0.5 µM, mean ± SD of 3 biological repetitions (SD 0 not displayed), N/A = no antimicrobial activity observed
Experimental: as §1, §2, §3

[3] = system: Bacillus cereus; assay: microbe, parasite or virus in culture; details: ATCC 14579; Mueller-Hinton; 37 °C, 24 h; start 5.0 x 10^5 cells; 256-0.5 µM; mean ± SD of 3 biological repetitions (SD 0 not displayed); N/A = no antimicrobial activity observed
Experimental: as §1, §2, §3

[4] = system: Bacillus subtilis; assay: microbe, parasite or virus in culture; details: ATCC 23857; Mueller-Hinton; 37 °C, 24 h; start 5.0 x 10^5 cells; 256-0.5 µM; mean ± SD of 3 biological repetitions (SD 0 not displayed); N/A = no antimicrobial activity observed
Experimental: as §1, §2, §3

[5] = system: Escherichia coli; assay: microbe, parasite or virus in culture; details: ATCC 25922; Mueller-Hinton; 37 °C, 24 h; start 5.0 x 10^5 cells; 256-0.5 µM; mean ± SD of 3 biological repetitions (SD 0 not displayed); N/A = no antimicrobial activity observed
Experimental: as §1, §2, §3

[6] = system: Pseudomonas aeruginosa; assay: microbe, parasite or virus in culture; details: ATCC 27853; Mueller-Hinton; 37 °C, 24 h; start 5.0 x 10^5 cells; 256-0.5 µM; mean ± SD of 3 biological repetitions (SD 0 not displayed); N/A = no antimicrobial activity observed
Experimental: as §1, §2, §3

[7] = system: Staphylococcus aureus; assay: microbe, parasite or virus in culture; details: ATCC 25923; Mueller-Hinton; 37 °C, 24 h; start 5.0 x 10^5 cells; 256-0.5 µM; mean ± SD of 3 biological repetitions (SD 0 not displayed); N/A = no antimicrobial activity observed
Experimental: as §1, §2, §3

[8] = system: human red blood cells; assay: Cytotoxicity: hemolysis of human red blood cells; format: cell-based
Experimental: The cytotoxicity of the selected IAPS was performed using human red blood cells in strict accordance with relevant guidelines and regulations (Ethical committee – UnB # 1.939.989). Different concentrations of IAPs (128 µM–0.5 µM) were incubated with a final concentration of 2.5 × 10^5 red blood cells.mL^−1. Briefly, 100 µL of red blood cells was incubated with 100 µL of different concentrations of each IAP, prepared in PBS, for 30 minutes at 37 °C, with constant shaking at 120 rpm. PBS and Triton X-100 0.1% (v/v) were used as negative and positive controls, respectively. After incubation, the solution was centrifuged at 900 × g for five minutes followed by transferring 50 µL of the supernatant to flat-bottom polystyrene 96-well micro plates containing 50 µL of PBS. Microplate reading was performed at a BioTek Multireader, using a wavelength of 540 nm. All tests were performed in 3 biological replicates, composed of 3 biological repetitions each. The obtained data was subtracted by the negative control and relative to the positive control, defined as 100% lysis.

[9] = system: Moniliophthora perniciosa basidiospores; assay: Inhibition of M. perniciosa basidiospore germination; format: cell-based; details: 1 × 10^6 basidiospores mL^−1, one hour with peptide (256-0.5 µM), 24 °C, counted after 4 hours on agar slides, biological triplicates; for IC50: concentration at which at least 50% of basidiospores germination was inhibited, read-out: Inhibitory concentration IC50, M. perniciosa basidiospores germination; for Inhibitory concentration IC95, M. perniciosa basidiospores germination: concentration at which at least 95% of basidiospores germination was inhibited
Experimental: The antimicrobial potential of T. cacao IAPs for inhibiting M. perniciosa basidiospores was evaluated. Briefly, 1 × 10^6 basidiospores mL^−1 were incubated for one hour with different concentrations of T. cacao IAPs (256-0.5 µM), at 24 °C, in a final volume of 100 µL. Autoclaved dH20 was used as a control. After incubation, 3 droplets of 10 µL each were placed in a slide coated with agar (1.2% (w/v)). Slides were incubated for 4, 24 and 48 hours at 24 °C. Slides were visualized using a DMRXA light microscope (Leica). Approximately 150–200 basidiospores per droplet from each time point were counted and compared to the control condition, which was defined as 100% germination. All experiments were performed in biological triplicates, with 3 technical repetitions each.

[10] = SC50 = IAP concentration that at least 50% of red blood cells remain intact, 128 µM–0.5 µM tested, PBS, 30 minutes, 37 °C, absorbance 540 nm

Molecule | Minimum inhibitory concentration, Bacillus cereus [3] | Minimum inhibitory concentration, Bacillus subtilis [4] | Minimum inhibitory concentration, Candida albicans [1] | Minimum inhibitory concentration, Cryptococcus neoformans [2] | Minimum inhibitory concentration, Escherichia coli [5] | Minimum inhibitory concentration, Pseudomonas aeruginosa [6] | Minimum inhibitory concentration, Staphylococcus aureus [7] | Hemolytic activity (% ± SD) at 1 µM [8] | Hemolytic activity (% ± SD) at 2 µM [8] | Hemolytic activity (% ± SD) at 4 µM [8] | Hemolytic activity (% ± SD) at 8 µM [8] | Hemolytic activity (% ± SD) at 16 µM [8] | Hemolytic activity (% ± SD) at 32 µM [8] | Hemolytic activity (% ± SD) at 64 µM [8] | Hemolytic activity (% ± SD) at 128 µM [8] | Hemolytic activity of human red blood cells (%) SC50 [8] | IC50 [9] | Inhibitory concentration IC95, M. perniciosa basidiospores germination [9] | other results
OC(Cn1cncn1)(Cn1cncn1)c1ccc(F)cc1F [Fluconazole, reference compound] | – | – | – | – | – | – | – | – | – | – | – | – | – | – | – | – | – | – | MIC ([1]; Candida albicans, ATCC90028, 48 h, pH 7, read-out: Minimum inhibitory concentration, Candida albicans): 1.63 µM (≈ 0.499 µg/mL); MIC ([2]; Cryptococcus neoformans, ATCC28957, 72 h, pH 7, read-out: Minimum inhibitory concentration, Cryptococcus neoformans): 1.63 µM (≈ 0.499 µg/mL)
GFKLGRKLVKVFKWII-NH2 [Gr01] | 1.0 µM | 1.0 µM | 1.0 µM | 1.0 µM | 0.5 µM | 3.33 ± 1.15 µM | 0.83 ± 0.29 µM | 0.09 ± 0.01% | 0.00 ± 0.00% | 0.30 ± 0.15% | 1.96 ± 0.89% | 3.82 ± 1.28% | 11.33 ± 1.66% | 33.9 9 ± 5.46% | 51.72 ± 7.33% | 64 µM | – | – | Concentration that induced 50% hemolysis ([8]; red cells of human): 64 µM
GLWSTIKQKGKEAAIAAAKAAGQAALGAL-NH2 [DS01, Dermaseptin DS01, reference compound] | – | – | – | – | – | – | – | 0.00 ± 0.00% | 0.19 ± 0.02% | 0.17 ± 0.04% | 0.03 ± 0.01% | 0.48 ± 0.12% | 0.79 ± 0.30% | 3.70 ± 1.34% | – | – | 128 µM | 256 µM | Hemolytic activity of human red blood cells (%) SC50 [8, 10]: >128 µM
GSLHGFMYKYLKNMVLNLF-NH2 [Tc06] | – | – | – | – | – | – | – | 0.00 ± 0.00% | 0.00 ± 0.00% | 0.00 ± 0.00% | 0.00 ± 0.00% | 0.01 ± 0.00% | 0.77 ± 0.23% | 1.18 ± 0.23% | 7.67 ± 1.69% | >128 µM | 32 µM | 64 µM | –
GSLHGFMYKYLKTLVLRLY-NH2 [Zm01] | 64.0 µM | 8.0 µM | 6.67 ± 2.31 µM | 4.0 µM | 13.33 ± 4.61 µM | 16.0 µM | 16 µM | 0.00 ± 0.00% | 0.02 ± 0.00% | 0.00 ± 0.00% | 0.00 ± 0.00% | 0.66 ± 0.14% | 2.45 ± 1.03% | 6.56 ± 1.87% | 15.72 ± 3.48% | >128 µM | – | – | –
GSLHGFMYRYLKNMVLNLF-NH2 [Cs01] | 64.0 µM | 8.0 µM | 2.67 ± 1.15 µM | 8.0 µM | 32.0 µM | 32.0 µM | 4.0 µM | 0.10 ± 0.04% | 0.05 ± 0.03% | 0.01 ± 0.00% | 0.09 ± 0.01% | 0.27 ± 0.09% | 0.31 ± 0.15% | 2.18 ± 1.62% | 8.01 ± 2.16% | >128 µM | – | – | –
IVNHLVKLFDKGLNSIVNLR-NH2 [Tc05] | – | – | – | – | – | – | – | 0.11 ± 0.02% | 0.07 ± 0.01% | 0.15 ± 0.05% | 0.07 ± 0.04% | 0.50 ± 0.10% | 0.21 ± 0.09% | 0.78 ± 0.47% | – | – | 128 µM | 256 µM | Hemolytic activity of human red blood cells (%) SC50 [8, 10]: >128 µM
